Assays:
FXIIIa [1] = details: animal models; Leidy et al. 1990; cited from earlier work
FXIIIa [2] = biological target: FXIIIa (Homo sapiens, UniProt P00488); test: biochemical
Sequence of FXIIIa (Homo sapiens, UniProt P00488) (P00488 39-732 limits assumed): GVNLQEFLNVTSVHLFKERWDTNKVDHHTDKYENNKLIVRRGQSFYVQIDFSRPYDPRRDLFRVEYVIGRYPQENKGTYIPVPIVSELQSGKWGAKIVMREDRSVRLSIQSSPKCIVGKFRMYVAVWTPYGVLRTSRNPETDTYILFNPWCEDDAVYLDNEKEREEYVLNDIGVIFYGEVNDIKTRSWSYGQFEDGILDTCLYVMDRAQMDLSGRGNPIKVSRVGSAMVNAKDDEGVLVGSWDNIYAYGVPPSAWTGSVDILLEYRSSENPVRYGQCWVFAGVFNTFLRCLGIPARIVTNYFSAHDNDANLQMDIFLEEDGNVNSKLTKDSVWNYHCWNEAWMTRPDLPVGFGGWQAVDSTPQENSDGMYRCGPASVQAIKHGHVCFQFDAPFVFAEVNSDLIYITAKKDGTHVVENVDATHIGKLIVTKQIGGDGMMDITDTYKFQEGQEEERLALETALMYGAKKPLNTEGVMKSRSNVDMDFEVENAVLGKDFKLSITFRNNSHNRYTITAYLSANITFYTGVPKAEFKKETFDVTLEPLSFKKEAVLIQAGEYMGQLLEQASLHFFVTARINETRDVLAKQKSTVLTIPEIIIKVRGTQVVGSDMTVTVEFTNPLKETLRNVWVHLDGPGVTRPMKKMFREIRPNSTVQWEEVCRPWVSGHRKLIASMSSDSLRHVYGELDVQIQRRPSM

Structure (SMILES)	Effect on thrombolysis by a plasminogen activator (FXIIIa [1])	IC50 (FXIIIa [2]) [µM]
CC(=O)CSc1n[n+]2c(C)csc2s1.[O-][Cl+3]([O-])([O-])[O-] [L722151]	improve the thrombolysis	–
O=C(O)CI [iodoacetic acid]	–	147

From patent US20030190692A1, “Method for measuring the activity of the blood clotting factor XIIIA” (priority 2000, published 2003)
